The values below come from PubChem BioAssay (NCI).

Structures are written as SMILES.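 A five-concentration, 48-hour dose response in 96-well plates underlies each endpoint, interpolated linearly between surrounding concentrations. TGI marks complete inhibition of growth.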 Some results are limits rather than exact numbers.

One test relates to EKVX NSCLC. Briefly: NCI anticancer screen, dose series, 48 h.
With `c1ccc2c(c1)CCCC/C2=N/OCC1CO1` (stereo not given), the TGI is greater than 100 µM.
The same measure, in the same setting: in the case of `C=C1C(=O)C23C(O)CC4C5(C)CCCC4(C(O)OC5)C2C(OC(C)=O)CC1C3O` (stereo not given) it was 27.7 µM; in that of `O=C1CNS(=O)(=O)N1`, greater than 100 µM.
On the same count and under the same terms, with `COc1ccc(-c2c(C3=NCCCN3)nnn2-c2ccc([N+](=O)[O-])cc2)cc1` the figure was greater than 100 µM.

Another test deals with SNB-75 CNS. Briefly: NCI anticancer screen, dose series, 48 h.
For the molecule `c1ccc2c(c1)CCCC/C2=N/OCC1CO1` (stereo not given), the TGI is greater than 100 µM.
Same read-out and setting: in the case of `C=C1C(=O)C23C(O)CC4C5(C)CCCC4(C(O)OC5)C2C(OC(C)=O)CC1C3O` (stereo not given) it was 16.6 µM; in that of `O=C1CNS(=O)(=O)N1`, greater than 100 µM.
Same read-out and setting: in the case of `COc1ccc(-c2c(C3=NCCCN3)nnn2-c2ccc([N+](=O)[O-])cc2)cc1` it was greater than 100 µM.

A further test has as its system HCC-2998 colon. The test is described as follows: NCI anticancer screen, dose series, 48 h.
`c1ccc2c(c1)CCCC/C2=N/OCC1CO1` (stereo not given) showed a TGI greater than 100 µM.
Still for that read-out and setting: with `C=C1C(=O)C23C(O)CC4C5(C)CCCC4(C(O)OC5)C2C(OC(C)=O)CC1C3O` (stereo not given) the figure was 32.4 µM; with `O=C1CNS(=O)(=O)N1`, greater than 100 µM; with `COc1ccc(-c2c(C3=NCCCN3)nnn2-c2ccc([N+](=O)[O-])cc2)cc1`, greater than 100 µM.

Another test has as its system SN12C renal. Briefly: NCI anticancer screen, dose series, 48 h.
For the molecule `c1ccc2c(c1)CCCC/C2=N/OCC1CO1` (stereo not given), the TGI was greater than 100 µM.
The same measure, in the same setting: with `C=C1C(=O)C23C(O)CC4C5(C)CCCC4(C(O)OC5)C2C(OC(C)=O)CC1C3O` (stereo not given) the figure was 24.3 µM.
On the same count and under the same terms, in the case of `O=C1CNS(=O)(=O)N1` it was greater than 100 µM.
The same measure, in the same setting: with `COc1ccc(-c2c(C3=NCCCN3)nnn2-c2ccc([N+](=O)[O-])cc2)cc1` the figure was greater than 100 µM.

Another test deals with HCT-15 colon. The test is described as follows: NCI anticancer screen, dose series, 48 h.
Regarding `c1ccc2c(c1)CCCC/C2=N/OCC1CO1` (stereo not given), the TGI was greater than 100 µM.
Same read-out and setting: with `C=C1C(=O)C23C(O)CC4C5(C)CCCC4(C(O)OC5)C2C(OC(C)=O)CC1C3O` (stereo not given) the figure was 27.4 µM; with `COc1ccc(-c2c(C3=NCCCN3)nnn2-c2ccc([N+](=O)[O-])cc2)cc1`, greater than 100 µM.

In a further test the test system is SF-539 CNS. Briefly: NCI anticancer screen, dose series, 48 h.
Molecule `c1ccc2c(c1)CCCC/C2=N/OCC1CO1` (stereo not given) showed a TGI greater than 100 µM.
The same measure, in the same setting: in the case of `C=C1C(=O)C23C(O)CC4C5(C)CCCC4(C(O)OC5)C2C(OC(C)=O)CC1C3O` (stereo not given) it was 25.8 µM; in that of `O=C1CNS(=O)(=O)N1`, greater than 100 µM; in that of `COc1ccc(-c2c(C3=NCCCN3)nnn2-c2ccc([N+](=O)[O-])cc2)cc1`, greater than 100 µM.

A further test relates to UO-31 renal. Briefly: NCI anticancer screen, dose series, 48 h.
On to `C=C1C(=O)C23C(O)CC4C5(C)CCCC4(C(O)OC5)C2C(OC(C)=O)CC1C3O` (stereo not given), for which the TGI was greater than 100 µM.
The same measure, in the same setting: in the case of `O=C1CNS(=O)(=O)N1` it was greater than 100 µM.
The same measure, in the same setting: with `COc1ccc(-c2c(C3=NCCCN3)nnn2-c2ccc([N+](=O)[O-])cc2)cc1` the figure was greater than 100 µM.

The next test relates to OVCAR-8 ovarian. Briefly: NCI anticancer screen, dose series, 48 h.
For the molecule `c1ccc2c(c1)CCCC/C2=N/OCC1CO1` (stereo not given), the TGI is greater than 100 µM.
On the same count and under the same terms, in the case of `C=C1C(=O)C23C(O)CC4C5(C)CCCC4(C(O)OC5)C2C(OC(C)=O)CC1C3O` (stereo not given) it was 14.1 µM; in that of `O=C1CNS(=O)(=O)N1`, greater than 100 µM.
On the same count and under the same terms, in the case of `COc1ccc(-c2c(C3=NCCCN3)nnn2-c2ccc([N+](=O)[O-])cc2)cc1` it was greater than 100 µM.

The subject of another test is 786-0 renal. Briefly: NCI anticancer screen, dose series, 48 h.
Molecule `C=C1C(=O)C23C(O)CC4C5(C)CCCC4(C(O)OC5)C2C(OC(C)=O)CC1C3O` (stereo not given) had a TGI of 19.2 µM.
The same measure, in the same setting: with `O=C1CNS(=O)(=O)N1` the figure was greater than 100 µM.
On the same count and under the same terms, in the case of `COc1ccc(-c2c(C3=NCCCN3)nnn2-c2ccc([N+](=O)[O-])cc2)cc1` it was greater than 100 µM.

A further test has as its system SK-MEL-5 melanoma. The test is described as follows: NCI anticancer screen, dose series, 48 h.
Consider `c1ccc2c(c1)CCCC/C2=N/OCC1CO1` (stereo not given), for which the TGI was greater than 100 µM.
Same read-out and setting: in the case of `C=C1C(=O)C23C(O)CC4C5(C)CCCC4(C(O)OC5)C2C(OC(C)=O)CC1C3O` (stereo not given) it was 31.1 µM; in that of `COc1ccc(-c2c(C3=NCCCN3)nnn2-c2ccc([N+](=O)[O-])cc2)cc1`, greater than 100 µM.

The test system of another test is OVCAR-5 ovarian. The test is described as follows: NCI anticancer screen, dose series, 48 h.
Molecule `C=C1C(=O)C23C(O)CC4C5(C)CCCC4(C(O)OC5)C2C(OC(C)=O)CC1C3O` (stereo not given) displayed a TGI of 31.9 µM.
Same read-out and setting: with `COc1ccc(-c2c(C3=NCCCN3)nnn2-c2ccc([N+](=O)[O-])cc2)cc1` the figure was greater than 100 µM.

Another test concerns DLD-1 colon. The test is described as follows: NCI anticancer screen, dose series, 48 h.
The molecule `c1ccc2c(c1)CCCC/C2=N/OCC1CO1` (stereo not given) registered a TGI greater than 100 µM.
The same measure, in the same setting: in the case of `C=C1C(=O)C23C(O)CC4C5(C)CCCC4(C(O)OC5)C2C(OC(C)=O)CC1C3O` (stereo not given) it was 20.6 µM.
Same read-out and setting: in the case of `O=C1CNS(=O)(=O)N1` it was greater than 100 µM; in that of `COc1ccc(-c2c(C3=NCCCN3)nnn2-c2ccc([N+](=O)[O-])cc2)cc1`, greater than 100 µM.

A further test deals with LXFL 529 NSCLC. The test is described as follows: NCI anticancer screen, dose series, 48 h.
As for `c1ccc2c(c1)CCCC/C2=N/OCC1CO1` (stereo not given), the TGI is greater than 100 µM.
`C=C1C(=O)C23C(O)CC4C5(C)CCCC4(C(O)OC5)C2C(OC(C)=O)CC1C3O` (stereo not given): the TGI was 12.2 µM.
Still for that read-out and setting: with `O=C1CNS(=O)(=O)N1` the figure was greater than 100 µM.
In the case of `COc1ccc(-c2c(C3=NCCCN3)nnn2-c2ccc([N+](=O)[O-])cc2)cc1`, the TGI is greater than 100 µM.

The test system of the next test is NCI-H522 lung. The test is described as follows: NCI anticancer screen, dose series, 48 h.
Consider `C=C1C(=O)C23C(O)CC4C5(C)CCCC4(C(O)OC5)C2C(OC(C)=O)CC1C3O` (stereo not given), for which the TGI came out at 3.64 µM.
Same read-out and setting: in the case of `O=C1CNS(=O)(=O)N1` it was greater than 100 µM; in that of `COc1ccc(-c2c(C3=NCCCN3)nnn2-c2ccc([N+](=O)[O-])cc2)cc1`, greater than 100 µM.

In a further test the test system is MOLT-4 leukemia. The test is described as follows: NCI anticancer screen, dose series, 48 h.
`c1ccc2c(c1)CCCC/C2=N/OCC1CO1` (stereo not given) displayed a TGI greater than 100 µM.
